Measurements taken from patent US20070238700A1, “N-PHENYL-1,1,1-TRIFLUOROMETHANESULFONAMIDE HYDRAZONE DERIVATIVE COMPOUNDS AND THEIR USAGE IN CONTROLLING PARASITES” (priority 2006, published 2007).
Read-outs that look alike come from different tables or passages of the source.

Experiments:
Rhipicephalus sanguineus [1] = experiment: Dose response protocol for topical application on brown dog ticks (LD50); settings: 24 h mortality, probit analysis
Method: e) Dose response protocol for topical application on brown dog ticks (Rhipicephalus sanguineus): The test determines the level of insecticidal activity of sample compounds or formulations when applied topically on brown dog ticks. Sample compounds were stored prior to use in a freezer (−5±1° C.), unless otherwise specified.
• Mortality: A tick is defined as dead after it gives no apparent response when touched lightly or gently breathed upon, while observed for 30 seconds. • LD50 (Lethal Dose 50): The dose of a topically applied treatment at which 50% of the dog ticks are killed. • Reference compound: To assess an experimental compound for significant acaricidal activity a single dose level is chosen, which is based upon known results from previous experiments using a commercially available active i.e., a reference compound. The reference compound selected is one in common use, and one that has a similar mode of action against the Brown Dog Tick (i.e., the test species), • Recovery container: A recovery container consists of a 500 ml round plastic container measuring 115 mm diameter and 70 mm height, with a tight fitting lid that has 10 small (˜1 mm) holes inserted for air exchange. A 90 mm diameter piece of filter paper was placed on the bottom of the container and moistened with 1 mL of distilled water.
Adult, mixed sex, Brown Dog Ticks (Rhipicephalus sanguineus) were reared as follows: (i) cultured, (ii) transferred unfed, to a testing laboratory, and (iii) then maintained under controlled conditions (i.e., temp. 18°±2° C., humidity 75±5% RH). The ticks used were selected for vigor prior to testing, i.e., capable of actively walking and responsive to being touched or gently breathed upon.
During the testing, the temperature was maintained at 25±1° C. and the humidity was ambient. Seven dose levels (concentrations) of sample compound, in the form of serial dilutions in acetone, were derived from a pilot study and covered a range that produced very low to very high mortality. Groups of ten ticks were treated topically (on the abdomen) with 1 μL of a single dose level of the sample compound. Each test was replicated four times, i.e., employing a total of 40 ticks per dose level of each sample compound. As a control, ten ticks were treated with solvent only (acetone) for each test. Following the treatment, the ticks were held in recovery containers maintained under appropriate rearing conditions for 24 hours. Mortality resulting from the treatments was recorded at 24 hours. […] Press, London (1971).]

Rhipicephalus sanguineus [2] = experiment: Rapid screening protocol for topical application on brown dog ticks (% mortality); settings: data from laboratory 2
Summary of the method: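 Mixed-sex unfed adult ticks each received 1 μL test sample in acetone on the abdomen at a single screening dose chosen above the reference LD90 (fipronil 10 μg/tick), with acetone-only controls; 4 replicates of 10 ticks. Held 24 h at 25±1 °C; ticks unresponsive to light touch over 1 min scored dead, pooled as % mortality.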

Ctenocephalides felis [3] = experiment: Ctenocephalides felis adulticide assay: C. felis dose response (LC50)
Source text: c) Ctenocephalides felis Adulticide Assay: C. felis Dose Response
The purpose of this example was to determine the LC50 when cat fleas were contacted with a glass surface treated with sample compounds or formulations prepared as described above. […] The test species was the cat flea (Ctenocephalides felis). The strain used was obtained from external suppliers as pupae and held in the laboratory under testing conditions until the adults had emerged. Fifteen (15) fleas were used in a minimum of four replicates for each dose level (total of 60 fleas per dose level). The insects were selected to be in the adult life stage, aged between 3 and 7 days post emergence.
The compounds to be tested were dissolved in acetone just prior to testing. Samples of compounds were stored in a refrigerator (5±1° C.) unless otherwise specified. During the mortality testing, the temperature was maintained at 25±1° C. Humidity was maintained at 75±5%. The base (area=159 mm^2) of a 100 mL glass Erlenmeyer (conical) flask provided the treatment surface. Flasks were pretreated with Coatasil™ glass treatment to maximise bio-availability of test compounds by preventing them from binding to the glass surface.
The base of the 100 mL Erlenmeyer flask was treated with 0.5 mL of test sample in acetone and gently swirled. This volume was sufficient to cover the base of the flask. Flasks were left to dry for 24 hours before flea exposure. Adult cat fleas were lightly anaesthetised by cooling and then placed into a sorting chamber, which allowed fleas to revive and jump into the Erlenmeyer flasks. Fifteen (15) adult cat fleas were collected in each flask. The top of the flasks were then covered in Parafilm™ and small holes made to allow gas exchange. A 0.5 mL volume of acetone was applied to the base of an Erlenmeyer flask and the testing proceeded in the same manner described above. Cat fleas in the treatment containers were held under testing conditions for 24 hours. Mortality resulting from the treatments was recorded at 8 and 24 hours.

Ctenocephalides felis [4] = tested on: Ctenocephalides felis
Summary of the method: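 Adult cat fleas (3–7 days post-emergence), 15 per flask in ≥4 replicates, exposed to a dried acetone residue at 1.26 μg/cm^2 on a Coatasil-treated glass flask base. Held at 25±1° C, 75±5% humidity; mortality (immobile or unable to right) scored at 8, 24 and/or 48 h.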

Row | Structure (SMILES) | R. sanguineus LD50 (Rhipicephalus sanguineus [1]) | R. sanguineus Mortality (%) 24 h (Rhipicephalus sanguineus [2]) | C. felis LC50 (Ctenocephalides felis [3]) | C. felis Mortality (%) 8 h (Ctenocephalides felis [4]) | C. felis Mortality (%) 24 h (Ctenocephalides felis [4]) | C. felis LC50 (Ctenocephalides felis [3]; data from laboratory 1)
1 | CCN(N=C(C)c1cc(Cl)ccc1NS(=O)(=O)C(F)(F)F)c1cccc(F)c1 [Compound 76] | 2.1 μg/tick | 98% | 0.42 ppm | 100% | 100% | 
2 | CCC(=NN(C)C(=O)c1ccc(Cl)cc1)c1cc(Cl)ccc1NS(=O)(=O)C(F)(F)F [Compound 81] | 1.49 μg/tick | 100% | 2.2 ppm | 100% | 100% | 
3 | CCC(=NN(C)C(=O)c1ccc(Cl)cc1Cl)c1cc(Cl)ccc1NS(=O)(=O)C(F)(F)F [Compound 82] | 2.0 μg/tick | 100% | 2.4 ppm | 98% | 100% | 
4 | CC(=NN(C)c1ccc(Cl)c(Cl)c1)c1cc(Cl)ccc1NS(=O)(=O)C(F)(F)F [Compound 96] | 3.0 μg/tick | 78% | 2.0 ppm | 19% | 99% | 
5 | CC(=NN(C)c1cc(Cl)cc(Cl)c1)c1cc(Cl)ccc1NS(=O)(=O)C(F)(F)F [Compound 99] | 3.1 μg/tick | 95% | 1.9 ppm | 57% | 100% | 
6 | CC(=NN(C)c1cccc(Cl)c1Cl)c1cc(Cl)ccc1NS(=O)(=O)C(F)(F)F [Compound 100] | 4.0 μg/tick | 70% | 1.7 ppm | 55% | 100% | 
7 | CC(=NN(C)c1ccc(Cl)cc1)c1cc(Cl)ccc1NS(=O)(=O)C(F)(F)F [Compound 105] | 1.4 μg/tick | 95% | 3.0 ppm | 42% | 100% | 
8 | CC(=NN1CCCC1)c1cc(Cl)ccc1NS(=O)(=O)C(F)(F)F [Compound 116] | 0.74 μg/tick | 93% | 2.66 ppm | 98% | 100% | 
9 | CCOC(=O)N(CC)N=C(C)c1cc(Cl)ccc1NS(=O)(=O)C(F)(F)F [Compound 125] | 0.64 μg/tick | 95% | 3.62 ppm | 82% | 100% | 
10 | CCOC(=O)N(C)N=C(C)c1cc(Cl)ccc1NS(=O)(=O)C(F)(F)F [Compound 126] | 0.69 μg/tick | 100% |  | 55% | 97% | 1.84 ppm
11 | CCOC(=O)N(CC)N=C(CC)c1cc(Cl)ccc1NS(=O)(=O)C(F)(F)F [Compound 127] | 0.54 μg/tick | 100% | 1.22 ppm | 100% | 100% | 
12 | CCC(=NN1CCCCC1)c1cc(Cl)ccc1NS(=O)(=O)C(F)(F)F [Compound 129] | 0.52 μg/tick | 98% | 2.82 ppm | 27% | 98% | 
13 | CCC(=NN1CCCCC1)c1cc(Cl)ccc1NS(=O)(=O)C(F)(F)F [Compound 130] | 1.08 μg/tick | 98% | 2.36 ppm | 34% | 91% | 
14 | CCN(N=C(C)c1cc(Cl)ccc1NS(=O)(=O)C(F)(F)F)C(=O)OC [Compound 139] | 0.39 μg/tick | 100% | 5.14 ppm | 97% | 100% | 
15 | CCC(=NN(CC)C(=O)OC)c1cc(Cl)ccc1NS(=O)(=O)C(F)(F)F [Compound 140] | 0.28 μg/tick | 100% | 3.70 ppm | 89% | 100% | 
16 | CC(=NN(C)c1cccc(C(F)(F)F)c1)c1cc(Cl)ccc1NS(=O)(=O)C(F)(F)F [Compound 203] | 0.68 μg/tick | 95% | 1.30 ppm | 11% | 98% | 
17 | C/C(=N\N(C)C1CCCC1)c1cc(Cl)ccc1NS(=O)(=O)C(F)(F)F [Compound 211] | 1.01 μg/tick | 98% | 1.9 ppm | 12% | 85% | 
18 | C/C(=N\N(C)C1CCCCC1)c1cc(Cl)ccc1NS(=O)(=O)C(F)(F)F [Compound 215] | 1.29 μg/tick | 73% | 2.54 ppm | 8% | 100% | 
19 | CC(=O)N(CCC#N)/N=C(\C)c1cc(Cl)ccc1NS(=O)(=O)C(F)(F)F [Compound 221] | 0.53 μg/tick | 90% | 2.2 ppm | 15% | 100% | 
20 | C/C(=N\N(CCC#N)C(=O)c1ccccc1)c1cc(Cl)ccc1NS(=O)(=O)C(F)(F)F [Compound 222] | 0.56 μg/tick | 88% | 2.64 ppm | 5% | 89% | 
21 | CCCCCC(=O)N(CCC#N)/N=C(\C)c1cc(Cl)ccc1NS(=O)(=O)C(F)(F)F [Compound 224] | 0.71 μg/tick | 100% | 3.54 ppm | 3% | 100% | 
